The source of these data is patent US9724380B2, “Method and compositions for synchronizing time of insemination in gilts” (JBS UNITED ANIMAL HEALTH II LLC, priority 2012, dated 2017).

One test deals with gilts. Description: Example 5: estrus observation after triptorelin gel dose groups. To be noted: raw average, PTK 2-07. Format: in vivo, swine. On the procedure:
(§1) All gilts were individually fed MATRIX® as a top-dress for 14 or 15 days at the recommended rate of 15 mg/gilt/day. Gilts were withdrawn from MATRIX® feeding (last top-dress in the morning on Day 0) and allocated to each of the following treatments. Controls were vehicle gel treated (vehicle gel without triptorelin) at 120 (+/−2) hours following MATRIX® withdrawal (last top dress). The other gilts were given 100, 200 or 400 mcg triptorelin as the acetate in a methylcellulose gel formulation 120 (+/−2) hours following MATRIX® withdrawal. The four treatments were: • 1. Vehicle gel (VG): vehicle gel without triptorelin at 120 (+/−2) hours after MATRIX® withdrawal. • 2. TG 100: 100 mcg (2 mL 50 mcg/mL) triptorelin gel at 120 (+/−2) hours after MATRIX® withdrawal. • 3. TG 200: 200 mcg (2 mL 100 mcg/mL) triptorelin gel at 120 (+/−2) hours after MATRIX® withdrawal. • 4. TG 400: 400 mcg (2 mL 200 mcg/mL) triptorelin gel at 120 (+/−2) hours after MATRIX® withdrawal.
Triptorelin (pGlu-His-Trp-Ser-Tyr-D-Trp-Leu-Arg-Pro-Gly-NH2) was supplied in the acetate form, from Bachem, Torrance, Calif. (Item H-4075 CGMP grade). Triptorelin gel (100-400 mcg/2 mL dose) was formulated by Argenta (Auckland, NZ) in a gel composed of Methocel Premium A4000 (Dow Chemical), citrate buffer (pH 5.5), NaCl, methionine, and methyl and propyl parabens. Fifty-four milliliters of triptorelin gel (100 mcg triptorelin acetate/mL) was packaged in Amber Borosilicate Glass Serum Vials (610206-50) with a Gray Butyl Pharmaceutical Serum Vial Stopper (73828A-SS) with a Standard Aluminum Seal (SAS20NAT). […] MATRIX® was supplied as the US commercially available form.
For post-treatment estrus detection, gilts were housed in individual pens. Boars were housed in separate rooms, and/or at least 12 m away and downwind. To elicit signs of estrus, a mature boar was walked slowly in the alley in front of the gilts' crates, exposing each test gilt to visual, auditory and olfactory signals from the boar for up to 5 minutes. In keeping with standard practice at commercial farms, while the boar was near the front of the gilt's crate, estrus was tested by an experienced person applying back pressure to the midsection of the gilt combined with side rubbing. Estrus was confirmed when a gilt stood rigidly to the back pressure, with no vocalization and with some indication of an ear reflex. Gilts were not exposed to boars during the first three days after withdrawal of MATRIX® (Day 0 to Day 2). Estrus detection was performed daily on all gilts from Day 3 to Day 7.
A single 2 mL dose of triptorelin gel or vehicle gel was deposited within approximately 1-2 cm posterior to the cervix with a catheter similar to those used for artificial insemination. The dose was delivered using a standard multi-dose applicator attached to the catheter. […]

Another test has as its system serum LH. Description: Example 5: serum LH surge after triptorelin gel (jugular catheter subpopulation). The test is classed as in vivo, swine. Here is the method:
as §1
A catheter was inserted non-surgically into the jugular vein (Kraeling et al. 1982) of a subpopulation of gilts in each treatment group (vehicle gel, n=8; 100 mcg triptorelin, n=6; 200 mcg triptorelin, n=7 and 400 mcg triptorelin, n=6). Ten mL blood samples were collected every 15 minutes for one hour prior to treatment, immediately following treatment (0) and at 0.5, 1, 2, 4, 6, 12, 18, 24, 36 and 48 hours after treatment. Blood samples were maintained at 4° C. until centrifuged at 800×g for 15 minutes within 12 hours of collection. The resulting serum was stored frozen until assayed for LH using validated procedures for pig serum (Kesner et al., 1987 and Kraeling et al., 1982). Onset, duration, and magnitude of the LH surge were analyzed. The LH data were analyzed with the General Linear Models procedure of SAS. Differences between treatments were tested on least squares means estimates using the T test at P<0.05. Onset of the LH surge is when serum LH concentration is greater than or equal to two standard deviations of the mean of the pre-treatment serum LH concentrations. Duration of the LH surge is the period between onset and when serum LH concentration is again less than or equal to two standard deviations of the mean of the pre-treatment serum LH concentrations. Magnitude of the LH surge is the maximum serum LH concentration reached during the LH surge.
A single 2 mL dose of triptorelin gel or vehicle gel was deposited within approximately 1-2 cm posterior to the cervix with a catheter similar to those used for artificial insemination. The dose was delivered using a standard multi-dose applicator attached to the catheter. A new disposable sheath, which surrounds the catheter, was used for each gilt.

Setting [1] is: 200 mcg T, LS mean (1 gilt with surge).
The mark [2] stands for this setting: 200 mcg T, relative to time of triptorelin gel treatment, LS mean (1 gilt with surge).

For `CC(C)C[C@H](NC(=O)[C@@H](Cc1c[nH]c2ccccc12)NC(=O)[C@H](Cc1ccc(O)cc1)NC(=O)[C@H](CO)NC(=O)[C@H](Cc1c[nH]c2ccccc12)NC(=O)[C@H](Cc1c[nH]cn1)NC(=O)[C@@H]1CCC(=O)N1)C(=O)N[C@@H](CCCNC(=N)N)C(=O)N1CCC[C@H]1C(=O)NCC(N)=O` [T, pGlu-His-Trp-Ser-Tyr-D-Trp-Leu-Arg-Pro-Gly-NH2], the figures for the “Estrous Expression (%)” value in the test with gilts (100 mcg T at 120 h post-MATRIX) and in the test on gilts (200 mcg T at 120 h post-MATRIX) were 75.0% and 81.0%, respectively. For the same compound, the “Gilts, which displayed a LH surge (number)” value in the test on serum LH (100 mcg T (n = 6)) is recorded as 4; in the test with serum LH (200 mcg T (n = 7)) it was 1; in the test with serum LH (400 mcg T (n = 6)) it was 5. Besides, the “Magnitude of LH surge (maximum serum LH concentration)” value in the test with serum LH (100 mcg T, LS mean ± SE) was 3.94 ± 1.22; with serum LH (setting [1]), 8.98; with serum LH (400 mcg T, LS mean ± SE) it was 11.65 ± 12.35. The “Onset of LH surge” value in the test on serum LH (100 mcg T, relative to time of triptorelin gel treatment, LS mean ± SE) was 4 ± 3; in the test on serum LH (setting [2]), 0.5; in the test with serum LH (400 mcg T, relative to time of triptorelin gel treatment, LS mean ± SE) it was 4 ± 4. For the same compound, the “Duration of LH surge” value in the test on serum LH (setting [1]) came to 18. In addition, in the test on serum LH (setting [2]), the “Time of maximum LH conc.” value turned out to be 4.
